This is an account of results in patent publication US20140023611A1 (priority 2010, published 2014).

Assay [1] has as its target T1, human NaP2b (SLC34A2) (Homo sapiens, UniProt O95436).
T1 construct: host or cells: HEK293
T1 sequence (O95436 1-690): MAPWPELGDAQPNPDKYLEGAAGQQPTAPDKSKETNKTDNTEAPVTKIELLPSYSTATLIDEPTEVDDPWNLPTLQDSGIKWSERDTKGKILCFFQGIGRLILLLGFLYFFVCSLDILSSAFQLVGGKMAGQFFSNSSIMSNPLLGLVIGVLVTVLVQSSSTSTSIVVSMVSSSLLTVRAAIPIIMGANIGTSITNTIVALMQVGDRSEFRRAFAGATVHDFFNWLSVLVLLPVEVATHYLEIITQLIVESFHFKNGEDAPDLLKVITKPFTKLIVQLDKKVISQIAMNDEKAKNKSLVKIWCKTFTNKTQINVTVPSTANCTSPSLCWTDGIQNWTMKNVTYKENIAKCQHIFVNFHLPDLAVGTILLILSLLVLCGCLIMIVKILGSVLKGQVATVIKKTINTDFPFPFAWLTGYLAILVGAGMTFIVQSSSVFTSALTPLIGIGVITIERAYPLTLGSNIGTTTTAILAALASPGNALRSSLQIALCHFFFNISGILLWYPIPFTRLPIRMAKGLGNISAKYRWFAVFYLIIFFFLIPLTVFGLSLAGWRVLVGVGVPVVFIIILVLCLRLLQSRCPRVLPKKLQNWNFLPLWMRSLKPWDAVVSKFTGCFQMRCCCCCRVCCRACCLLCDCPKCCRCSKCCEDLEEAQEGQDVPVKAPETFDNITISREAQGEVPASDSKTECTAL
Nature of the assay: Inhibition of NaP2b-mediated Pi (33P) uptake in transfected HEK293 cells, human NaP2b. It counts as cell-based. The note with it: read-out: pIC50 range for human NaP2b (converted). On the procedure:
HEK293 cells were obtained from the American Type Culture collection and propagated per their instructions. Expression clones for rat and human NaP2b (SLC34A2) were obtained from Open Biosystems (Catalog numbers MRN1768-9510282, and MHS1010-99823026, respectively). The sequence of the human protein was mutated to insert a threonine after residue 37, and to introduce a N39D mutation.
The rate of phosphate (Pi) uptake into HEK293 cells was measured using a modification of the method described by Mohrmann et al. (Mohrmann, I., Mohrmann, M., Biber, J., and Murer, H. (1986) Am. J. Phys. 250(3 Pt 1):G323-30.) Transfected HEK293 cells were treated with a pharmacological agent to minimize endogenous PiT-mediated phosphate transport activity, such that the only remaining sodium-dependent phosphate transport activity is that which was bestowed by introduction of the NaP2b genes.
Cells were seeded into 96-well plates at 25,000 cells/well and cultured overnight. Lipofectamine 2000 (Invitrogen) was used to introduce the NaP2b cDNA, and the cells were allowed to approach confluence during a second overnight incubation. […] Cells were then overlayed with either choline uptake buffer or sodium uptake buffer (14 mM Tris, 137 mM sodium chloride, 5.4 mM KCl, 2.8 mM CaCl2, 1.2 mM MgSO4, 100 uM KH2PO4, PiT-silencing agent, 1 mg/mL Bovine Serum Albumin, pH 7.4) containing 6-9 uCi/mL ^33P orthophosphoric acid (Perkin Elmer) and test compound. Each compound was tested at twelve concentrations ranging from 0.1 nM to 30 uM. Assays were run in duplicate.
After incubation for 3-30 minutes at room temperature, assay mixtures were removed, and the cells were washed twice with ice cold stop solution (137 mM sodium chloride, 14 mM Tris, pH 7.4). Cells were lysed by addition of 20 μL 0.1% Tween 80 followed by 100 μL scintillation fluid, and counted using a TopCount (Perkin Elmer).
pIC50 (the negative log of the IC50) values of the test compounds were calculated using GraphPad Prism.

For assay [2], the target named is T2, rat NaP2b (SLC34A2) (Rattus norvegicus, UniProt Q9JJ09).
T2 construct: host or cells: HEK293
T2 sequence (Q9JJ09 1-695): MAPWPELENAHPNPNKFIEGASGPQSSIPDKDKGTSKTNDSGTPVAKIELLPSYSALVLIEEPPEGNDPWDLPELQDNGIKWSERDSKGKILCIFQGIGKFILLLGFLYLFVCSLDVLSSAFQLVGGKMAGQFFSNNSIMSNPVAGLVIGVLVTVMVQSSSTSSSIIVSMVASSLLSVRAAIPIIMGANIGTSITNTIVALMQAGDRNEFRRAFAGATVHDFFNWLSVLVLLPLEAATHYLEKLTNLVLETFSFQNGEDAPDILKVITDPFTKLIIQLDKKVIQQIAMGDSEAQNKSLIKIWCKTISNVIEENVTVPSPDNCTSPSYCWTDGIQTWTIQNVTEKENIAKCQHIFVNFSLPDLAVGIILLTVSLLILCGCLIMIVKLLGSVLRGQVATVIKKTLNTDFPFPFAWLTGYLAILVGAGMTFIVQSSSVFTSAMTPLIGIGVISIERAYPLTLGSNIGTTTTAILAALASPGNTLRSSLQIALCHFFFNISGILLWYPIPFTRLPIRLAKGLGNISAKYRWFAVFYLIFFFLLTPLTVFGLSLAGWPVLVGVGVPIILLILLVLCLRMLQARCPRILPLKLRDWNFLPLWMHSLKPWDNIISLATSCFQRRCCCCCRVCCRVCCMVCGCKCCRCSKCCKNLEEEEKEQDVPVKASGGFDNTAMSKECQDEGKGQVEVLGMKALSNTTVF
Nature of the assay: Inhibition of NaP2b-mediated Pi (33P) uptake in transfected HEK293 cells, rat NaP2b. In kind it is cell-based. The note with it: 33P Pi uptake, 0.1 mM phosphate, value given as pIC50 range. In short, it runs like this: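 HEK293 cells were transiently transfected with NaP2b cDNA using Lipofectamine and grown near confluence. Compounds were tested at twelve concentrations from 0.1 nM to 30 uM in duplicate, and 33P-phosphate uptake was counted by scintillation after lysis. Results are expressed as pIC50.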

On to `CCN(CC)c1ccc(NC(=O)c2cccc(COCCOCCOCCOCCOCCOCCN(C)CCN3CCOCC3)c2)c(-c2cc(C(=O)NCc3cccc(C(F)(F)F)c3)ccn2)c1` [Example 179, 2-(5-(diethylamino)-2-(3-(20-methyl-22-morpholino-2,5,8,11,14,17-hexaoxa-20-azadocosyl)benzamido)phenyl)-N-(3-(trifluoromethyl)benzyl)isonicotinamide], for which the IC50 in assay [1] and in assay [2] was 1000 to 7940 nM each time.
Take `O=C(O)c1cccc(COc2cccc(C(=O)Nc3ccc(N4CCCCC4)cc3-c3cc(C(=O)NCc4cccc(C(F)(F)F)c4)ccn3)c2)c1` [Example 183, 3-((3-(4-(piperidin-1-yl)-2-(4-(3-(trifluoromethyl)benzylcarbamoyl)pyridin-2-yl)phenylcarbamoyl)phenoxy)methyl)benzoic acid]: the IC50 in assay [1] and in assay [2] was 1000 to 7940 nM each time.
On to `O=C(O)c1cccc(COCc2cccc(C(=O)Nc3ccc(N4CCCCC4)cc3-c3cc(C(=O)NCc4cccc(C(F)(F)F)c4)ccn3)c2)c1` [Example 185, 3-((3-(4-(piperidin-1-yl)-2-(4-(3-(trifluoromethyl)benzylcarbamoyl)pyridin-2-yl)phenylcarbamoyl)benzyloxy)methyl)benzoic acid], for which the IC50 is less than 1000 nM in assay [1] and 1000 to 7940 nM in assay [2].
For the molecule `CN(CCN1CCC[C@H]1C(=O)OC(C)(C)C)C(=O)c1cccc(C(=O)Nc2ccc(N3CCCCC3)cc2-c2cc(C(=O)N[C@H]3CCCc4ccccc43)ccn2)c1` [Example 187, (S)-tert-butyl 1-(2-(N-methyl-3-((4-(piperidin-1-yl)-2-(4-(((S)-1,2,3,4-tetrahydronaphthalen-1-yl)carbamoyl)pyridin-2-yl)phenyl)carbamoyl)benzamido)ethyl)pyrrolidine-2-carboxylate], the IC50 is 1000 to 7940 nM in assay [1] and less than 1000 nM in assay [2].
In the case of `CN(CCN1CCC[C@H]1C(=O)NCCOCCOCCOCCC(=O)OC(C)(C)C)C(=O)c1cccc(C(=O)Nc2ccc(N3CCCCC3)cc2-c2cc(C(=O)N[C@H]3CCCc4ccccc43)ccn2)c1` [Example 192, tert-butyl 1-((S)-1-(2-(N-methyl-3-((4-(piperidin-1-yl)-2-(4-(((S)-1,2,3,4-tetrahydronaphthalen-1-yl)carbamoyl)pyridin-2-yl)phenyl)carbamoyl)benzamido)ethyl)pyrrolidin-2-yl)-1-oxo-5,8,11-trioxa-2-azatetradecan-14-oate], the IC50 in assay [1] and in assay [2] was less than 1000 nM in each case.
With `CCN(CC)c1ccc(NC(=O)c2cccc(C(=O)N(C)CCN3CCCC[C@H]3C(=O)NCCOCCOCCOCCOCCOCCOCCOCCOC)c2)c(-c2cc(C(=O)NCc3cccc(C(F)(F)F)c3)ccn2)c1` [Example 201, (S)—N^1-(2-(2-(2,5,8,11,14,17,20,23-octaoxapentacosan-25-yl-carbamoyl)piperidin-1-yl)ethyl)-N^3-(4-(diethylamino)-2-(4-((3-(trifluoromethyl)benzyl)carbamoyl)pyridin-2-yl)phenyl)-N^1-methylisophthalamide], the IC50 in assay [1] and in assay [2] was 1000 to 7940 nM in each case.
With `CCN(CC)c1ccc(NC(=O)c2cccc(C(=O)N(C)CCN3CCN(C(=O)N(C)CCOCCOCCOCCC(=O)OC(C)(C)C)CC3)c2)c(-c2cc(C(=O)N[C@H]3CCCc4ccccc43)ccn2)c1` [Example 212, tert-butyl 3-[2-(2-{2-[(4-{2-[1-(3-{[4-(diethylamino)-2-(4-{[(1S)-1,2,3,4-tetrahydronaphthalen-1-yl]carbamoyl}pyridin-2-yl)phenyl]carbamoyl}phenyl)-N-methylformamido]ethyl}piperazin-1-yl)carbonyl(methyl)amino]ethoxy}ethoxy)ethoxy]propanoate], the IC50 in assay [1] and in assay [2] was less than 1000 nM each time.
Take `COCCOCCOCCOCCOCCOCCOCCOCC(=O)N1CCCN(CCN(C)C(=O)c2cccc(C(=O)Nc3ccc(N4CCCCC4)cc3-c3cc(C(=O)N[C@H]4CCCc5ccccc54)ccn3)c2)CC1` [Example 213, (S)—N1-(2-(4-2,5,8,11,14,17,20,23-octaoxapentacosane-1,4-diazepan-1-yl)ethyl)-N1-methyl-N3-(4-(piperidin-1-yl)-2-(4-(1,2,3,4-tetrahydronaphthalen-1-ylcarbamoyl)pyridin-2-yl)phenyl)isophthalamide]: the IC50 in assay [1] is 1000 to 7940 nM; in assay [2] it was 10000 to 31600 nM.
On the same counts, the results for `COCCOCCOCCOCCOCCOCCOCCOC(=O)N1CCCN(CCN(C)C(=O)c2cccc(C(=O)Nc3ccc(N4CCCCC4)cc3-c3cc(C(=O)N[C@H]4CCCc5ccccc54)ccn3)c2)CC1` [Example 214, (S)-2,5,8,11,14,17,20-heptaoxadocosan-22-yl 4-(2-(N-methyl-3-(4-(piperidin-1-yl)-2-(4-(1,2,3,4-tetrahydronaphthalen-1-ylcarbamoyl)pyridin-2-yl)phenylcarbamoyl)benzamido)ethyl)-1,4-diazepane-1-carboxylate] are 1000 to 7940 nM and 1000 to 7940 nM.
With `CN(CCN1CCCN(C(=O)OC(C)(C)C)CC1)C(=O)c1cccc(C(=O)Nc2ccc(N3CCCCC3)cc2-c2cc(C(=O)N[C@H]3CCCc4ccccc43)ccn2)c1` [Example 219, (S)-tert-butyl 4-(2-(N-methyl-3-(4-(piperidin-1-yl)-2-(4-(1,2,3,4-tetrahydronaphthalen-1-ylcarbamoyl)pyridin-2-yl)phenylcarbamoyl)benzamido)ethyl)-1,4-diazepane-1-carboxylate], the IC50 in assay [1] and in assay [2] was less than 1000 nM in each case.
With `CN(CCN1CCCN(S(C)(=O)=O)CC1)C(=O)c1cccc(C(=O)Nc2ccc(N3CCCCC3)cc2-c2cc(C(=O)N[C@H]3CCCc4ccccc43)ccn2)c1` [Example 220, (S)—N1-methyl-N1-(2-(4-(methylsulfonyl)-1,4-diazepan-1-yl)ethyl)-N3-(4-(piperidin-1-yl)-2-(4-(1,2,3,4-tetrahydronaphthalen-1-ylcarbamoyl)pyridin-2-yl)phenyl)isophthalamide], the IC50 was 1000 to 7940 nM in assay [1] and less than 1000 nM in assay [2].
For the molecule `CCN(CC)c1ccc(NC(=O)c2cccc(C(=O)N(C)CCN(C)CCOCCOCCOCCN=[N+]=[N-])c2)c(-c2cc(C(=O)N[C@H]3CCCc4ccccc43)ccn2)c1` [Example 222, (S)—N1-(14-azido-3-methyl-6,9,12-trioxa-3-azatetradecyl)-N3-(4-(diethylamino)-2-(4-(1,2,3,4-tetrahydronaphthalen-1-ylcarbamoyl)pyridin-2-yl)phenyl)-N1-methylisophthalamide], the IC50 in assay [1] and in assay [2] was less than 1000 nM each time.
